Consider one compound from article PMC9701690, “Teloxantron inhibits the processivity of telomerase with preferential DNA damage on telomeres” (Cell Death & Disease, 2022).

The assay has as its target T1, hTERT (catalytic subunit of human telomerase) (Homo sapiens, UniProt O14746).
T1 construct: gene TERT; with telomerase ribonucleoprotein (TERC RNA and accessory proteins)
Put plainly: test-tube TRAP assay. Type of assay: biochemical.

T1 sequence (O14746 whole entry): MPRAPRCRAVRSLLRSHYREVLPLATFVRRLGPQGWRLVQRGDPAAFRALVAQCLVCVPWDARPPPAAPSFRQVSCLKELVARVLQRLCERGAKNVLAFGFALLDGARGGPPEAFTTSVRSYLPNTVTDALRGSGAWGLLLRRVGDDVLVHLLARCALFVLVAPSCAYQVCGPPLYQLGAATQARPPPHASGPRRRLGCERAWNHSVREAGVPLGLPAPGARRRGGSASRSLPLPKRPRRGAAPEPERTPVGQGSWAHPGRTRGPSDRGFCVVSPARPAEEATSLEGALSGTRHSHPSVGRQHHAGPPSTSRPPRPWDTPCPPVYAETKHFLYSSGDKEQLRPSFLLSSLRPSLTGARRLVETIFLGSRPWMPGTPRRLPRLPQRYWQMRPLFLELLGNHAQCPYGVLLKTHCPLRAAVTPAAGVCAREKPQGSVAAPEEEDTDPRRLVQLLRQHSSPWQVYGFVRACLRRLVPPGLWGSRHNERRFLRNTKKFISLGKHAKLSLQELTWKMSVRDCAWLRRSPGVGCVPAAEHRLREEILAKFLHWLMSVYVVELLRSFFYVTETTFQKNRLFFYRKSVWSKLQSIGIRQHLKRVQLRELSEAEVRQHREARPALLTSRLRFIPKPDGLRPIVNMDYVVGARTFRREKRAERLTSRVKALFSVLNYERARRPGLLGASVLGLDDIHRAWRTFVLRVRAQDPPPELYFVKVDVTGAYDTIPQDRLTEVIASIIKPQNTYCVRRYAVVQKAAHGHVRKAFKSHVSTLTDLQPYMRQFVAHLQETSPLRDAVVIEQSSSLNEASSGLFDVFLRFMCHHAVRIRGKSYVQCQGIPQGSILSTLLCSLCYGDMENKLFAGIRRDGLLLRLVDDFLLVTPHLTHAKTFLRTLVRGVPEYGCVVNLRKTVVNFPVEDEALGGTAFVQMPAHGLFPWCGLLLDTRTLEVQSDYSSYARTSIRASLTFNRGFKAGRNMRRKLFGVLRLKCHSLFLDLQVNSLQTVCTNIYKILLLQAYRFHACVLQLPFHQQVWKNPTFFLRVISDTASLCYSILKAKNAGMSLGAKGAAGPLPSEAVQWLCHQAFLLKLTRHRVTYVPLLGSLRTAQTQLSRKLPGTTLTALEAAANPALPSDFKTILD

As for `C/C(=C\C(=O)Nc1ccccc1C(=O)O)c1ccc2ccccc2c1` [BIBR1532], 64.1 ± 2.53 µM corresponded to half-maximal inhibition (IC50).
